Results from patent US8658570B2, “Use of anthranilamide derivatives for controlling insects and spider mites by drenching, soil mixing, furrow treatment, drip application, soil, stem or flower injection, in hydroponic systems, by planting hole treatment or dip application, floating or seedbox application or by treating seed, and …” (Bayer Cropscience AG, priority 2010, dated 2014).

Experiments:
Format in all cases: in vivo
Diabrotica balteata = Diabrotica balteata test on maize; drench application; settings: soil, 192 h, mortality 8 days after treatment, mixtures about 95%/5%, read-out: % Activity (according to Abbott)
Protocol: Diabrotica balteata Test on Maize; Drench Application • Solvent: 7 parts by weight of dimethylformamide • Emulsifier: 1 part by weight of alkylaryl polyglycol ether To produce a suitable preparation of active compound, 1 part by weight of active compound is mixed with the stated amounts of solvent and emulsifier, and the concentrate is diluted with water to the desired concentration. Maize plants (Zea mays) are watered with the solution of the product in question and infested with larvae of the banded cucumber beetle (Diabrotica baltenta). After 8 days, the activity in % is determined. 100% means that all caterpillars have been killed; 0% means that none of the caterpillars have been killed.

Spodoptera frugiperda [1] = test: Spodoptera frugiperda test on maize; drench application (Example B-1); settings: soil, 336 h, mortality 14 days after treatment, read-out: % Activity (according to Abbott)
Protocol: Spodoptera fugiperda Test on Maize; […] Application • Solvent: 7 parts by weight of dimethylformamide • Emulsifier: 1 part by weight of alkylaryl polyglycol ether To produce a suitable preparation of active compound, 1 part by weight of active compound is mixed with the stated amounts of solvent and emulsifier, and the concentrate is diluted with water to the desired concentration. Maize plants (Zea mays) are watered with a solution of the product in question and infested with the armyworm (Spadoptera frugiperda). After 14 days, the activity in % is determined. 100% means that all caterpillars have been killed; 0% means that none of the caterpillars have been killed.

Plutella xylostella = Plutella xylostella test on Savoy cabbage; drench application; settings: soil, 168 h, mortality 7 days after infestation, read-out: % Activity (according to Abbott); for pest or weed control at 0.5 mg/plant: 0.5 mg of ai/plant; for pest or weed control at 1 mg/plant: 1 mg of ai/plant
Protocol: Plutella xylostella test on Savoy Cabbage; Drench Application
(§1) • Solvent: 4 parts by weight of acetone • Emulsifier: 1 part by weight of alkylaryl polyglycol ether
(§2) To produce a suitable preparation of active compound, 1 part by weight of active compound is mixed with the stated amounts of solvent and emulsifier, and the concentrate is diluted with water to the desired concentration. Savoy cabbage (Brassica oleracea) is watered with a solution of the product in question (volume of water: 60 ml/plant). The stated concentration refers to the amount of active compound per plant. After about 1 week, the treated plants are infested with larvae of the diamondback moth (Plutella xylostella). After 1 week, the activity in % is determined. 100% means that all caterpillars have been killed; 0% means that none of the caterpillars have been killed.

Spodoptera frugiperda [2] = test: Spodoptera frugiperda test on maize; drench application (Example B); settings: soil, 168 h, mortality 7 days after infestation, read-out: % Activity (according to Abbott); for pest or weed control at 0.5 mg/plant: 0.5 mg of ai/plant; for pest or weed control at 1 mg/plant: 1 mg of ai/plant
Protocol: Spodoptera frugiperda Test on Maize; Drench Application
as §1
as §2, with “Maize plants (Zea mays) are” for “Savoy cabbage (Brassica oleracea) is”, “50” for “60”, “with” for “with larvae of”, “armyworm (Spodoptera frugiperda).” for “diamondback moth (Plutella xylostella).”

Heliothis armigera = Heliothis armigera test on cotton; drench application; settings: Helicoverpa armigera, soil, 168 h, mortality 7 days after infestation, read-out: % Activity (according to Abbott); for pest or weed control at 0.5 mg/plant: 0.5 mg of ai/plant; for pest or weed control at 1 mg/plant: 1 mg of ai/plant
Protocol: Heliothis armigera Test on Cotton; Drench Application
as §1
as §2, with “Cotton plants (Gossypium hirsuium) are” for “Savoy cabbage (Brassica oleracea) is”, “50” for “60”, “cotton bollworm (Heliothis armigera).” for “diamondback moth (Plutella xylostella).”

Myzus persicae = Myzus persicae test on Savoy cabbage; drench application; settings: soil, 240 h, mortality 10 days after treatment, mixtures about 85%/15% and 84%/15%, read-out: % Activity (according to Abbott)
Protocol: Myzus persicae Test on Savoy Cabbage; Drench Application • Solvent: 7 parts by weight of dimethylformamide • Emulsifier: part by weight of alkylaryl polyglycol ether To produce a suitable preparation of active compound, 1 part by weight of active compound is mixed with the stated amounts of solvent and emulsifier, and the concentrate is diluted with water to the desired concentration. Savoy cabbage (Brassica oleracea) heavily infested by the green peach aphid (Myzus persicae) is watered with a solution of the product of the desired concentration. After 10 days, the activity in % is determined. 100% means that all of the aphids have been killed: 0% means that none of the aphids have been killed.

Row | SMILES | inhibition at 20 ppm (Diabrotica balteata) | inhibition at 20 ppm (Spodoptera frugiperda [1]) | pest or weed control at 0.5 mg/plant (Plutella xylostella) | pest or weed control at 0.5 mg/plant (Spodoptera frugiperda [2]) | pest or weed control at 0.5 mg/plant (Heliothis armigera) | inhibition at 20 ppm (Myzus persicae) | pest or weed control at 1 mg/plant (Plutella xylostella) | pest or weed control at 1 mg/plant (Spodoptera frugiperda [2]) | pest or weed control at 1 mg/plant (Heliothis armigera)
1 | CNC(=O)c1cc(C#N)cc(C)c1NC(=O)c1cc(Cn2nnc(C(F)(F)F)n2)nn1-c1ncccc1Cl [(I-1-1)] | 100% | 100% | – | – | – | – | – | – | –
2 | Cc1cc(C#N)cc(C(=O)NC(C)(C)C)c1NC(=O)c1cc(Cn2nnc(C(F)(F)F)n2)nn1-c1ncccc1Cl [(I-1-2)] | – | 100% | – | – | – | – | – | – | –
3 | CCNC(=O)c1cc(C#N)cc(C)c1NC(=O)c1cc(Cn2nnc(C(F)(F)F)n2)nn1-c1ncccc1Cl [(I-1-3)] | – | – | 100% | 100% | 100% | 90% | – | – | –
4 | CNC(=O)c1cc(F)cc(C)c1NC(=O)c1cc(Cn2nnc(C(F)(F)F)n2)nn1-c1ncccc1Cl [(I-1-61)] | – | – | 100% | 100% | 100% | – | – | – | –
5 | CNC(=O)c1cc(C#N)cc(C)c1NC(=O)c1cc(Cn2nnc(C(F)(F)F)n2)nn1-c1ncccc1Br [(I-1-62)] | 100% | – | 100% | 98% | 95% | 80% | – | – | –
6 | Cc1cc(C#N)cc(C(=O)NC(C)(C)C)c1NC(=O)c1cc(Cn2nnc(C(F)(F)F)n2)nn1-c1ncccc1Cl [(I-1-63)] | – | – | 100% | 100% | 100% | – | – | – | –
7 | CNC(=O)c1cc(Br)cc(C)c1NC(=O)c1cc(Cn2nnc(C(F)(F)F)n2)nn1-c1ncccc1Cl [(I-1-64)] | – | – | 100% | 100% | 100% | – | – | – | –
8 | Cc1cc(C#N)cc(C(=O)NC(C)(C)C)c1NC(=O)c1cc(Cn2nnc(C(F)(F)F)n2)nn1-c1ncccc1Br [(I-1-65)] | – | – | – | – | – | – | 100% | 95% | 100%
9 | CNC(=O)c1cc(C#N)cc(C)c1NC(=O)c1cc(Cn2nnc(C(F)(F)F)n2)nn1-c1c(F)cccc1Cl [(I-1-66)] | 90% | – | – | – | – | 90% | 90% | 95% | 100%
10 | Cc1cc(C#N)cc(C(=O)NC(C)C)c1NC(=O)c1cc(Cn2nnc(C(F)(F)F)n2)nn1-c1ncccc1Br [(I-1-67)] | – | – | – | – | – | – | 100% | 90% | 100%
11 | Cc1cc(Br)cc(C(=O)NCC#N)c1NC(=O)c1cc(Cn2nnc(C(F)(F)F)n2)nn1-c1ncccc1Cl [(I-1-68)] | 100% | – | 100% | 100% | 100% | – | – | – | –
12 | CNC(=O)c1cc(I)cc(C)c1NC(=O)c1cc(Cn2nnc(C(F)(F)F)n2)nn1-c1ncccc1Cl [(I-1-69)] | 100% | – | 100% | 85% | 100% | – | – | – | –
13 | Cc1cc(C#N)cc(C(=O)NC(C)(C)C)c1NC(=O)c1cc(Cn2nnc(C(F)(F)F)n2)nn1-c1ncccc1F [(I-1-70)] | – | – | – | – | – | – | 100% | 90% | 95%
14 | Cc1cc(C#N)cc(C(=O)NC(C)(C)C)c1NC(=O)c1cc(Cn2nnc(C3CC3)n2)nn1-c1ncccc1Cl [(I-1-71)] | – | – | 90% | 85% | – | – | – | – | –
